Reference: patent EP4813980A1, “EP300/CBP REGULATOR, AND PREPARATION METHOD THEREFOR AND USE THEREOF” (Miracure Biotechnology Limited, priority 2023, dated 2025)

Key:
Test in all cases: Cell growth inhibition, CellTiter-Glo, 72 h
Assay type in all cases: cell-based
vCap cells = conditions: Homo sapiens, 72 h culture, mean of N=2
Procedure: (§1) 22RV1, vCap, MM1S and OPM-2 cells were cultured in RPMI-1640 medium (10% fetal bovine serum and 100 units of penicillin/streptomycin dual-antibody per mL were added to RPMI-1640) in a cell incubator at 37°C with 5% CO2, respectively. Cells in logarithmic growth phase were seeded into 96-well cell culture plates at 5×10^3 cells/100 µL/well and cultured overnight. Active compounds dissolved in DMSO at different concentrations were added with a final concentration of 0.5% DMSO. 1% Tween 20 was used as positive control and 0.5% DMSO was used as negative control. After 72 h of culture, an equal volume of CellTiter-Glo was added to each well, mixed by shaking for 2 min, and left standing at room temperature for 10 min. […] signal values were read with a microplate reader. Data were analyzed and graphs were generated using Prism 7.0. The values shown are mean ± SEM (N=2). […] The formula for inhibition rate is as follows: % Inhibition = (Icompound−IZPE)/(IHPE−IZPE) × 100 [formula]
(§2) The X-axis is compound concentration (nM), and the Y-axis is % Inhibition.

MM1S cells = conditions: Homo sapiens, MM1.S, 72 h culture, mean of N=2
Procedure: as §1, §2

22RV1 cells = conditions: Homo sapiens, 72 h culture, mean of N=2
Procedure: as §1, §2

OPM-2 cells = conditions: Homo sapiens, 72 h culture, mean of N=2
Procedure: as §1, §2

SMILES | IC50 (vCap cells) | IC50 (MM1S cells) | IC50 (22RV1 cells) | IC50 (OPM-2 cells)
CC(=O)N1Cc2cc([C@H]3CC[C@@H](CN4Cc5cc6c(cc5C4)C(=O)N(C4CCC(=O)NC4=O)C6=O)CC3)cc(N3CCCc4cc(-c5cnn(C)c5)c(C(F)F)cc43)c2C1 (relative stereo) [Compound 2082, 6-(((1s,4s)-4-(2-acetyl-7-(7-(difluoromethyl)-6-(1-methyl-1H-pyrazol-4-yl)-3,4-dihydroquinolin-1(2H)-yl)isoindolin-5-yl)cyclohexyl)methyl)-2-(2,6-dioxopiperidin-3-yl)-6,7-dihydropyrrolo[3,4-f]isoindole-1,3(2H,5H)-dione] | 13 nM | 25 nM | 47 nM | 4 nM
CC(=O)N1Cc2cc([C@H]3CC[C@H](CN4Cc5cc6c(cc5C4)C(=O)N(C4CCC(=O)NC4=O)C6=O)CC3)cc(N3CCCc4cc(-c5cnn(C)c5)c(C(F)F)cc43)c2C1 (relative stereo) [Compound 2083, 6-(((1r,4r)-4-(2-acetyl-7-(7-(difluoromethyl)-6-(1-methyl-1H-pyrazol-4-yl)-3,4-dihydroquinolin-1(2H)-yl)isoindolin-5-yl)cyclohexyl)methyl)-2-(2,6-dioxopiperidin-3-yl)-6,7-dihydropyrrolo[3,4-f]isoindole-1,3(2H,5H)-dione] | 58 nM | 35 nM | > 10000 nM | 13 nM
CC(=O)N1Cc2cc([C@H]3CC[C@H](NC(=O)/C=C/CN(C)C)CC3)cc(N3CCCc4cc(-c5cnn(C)c5)c(C(F)F)cc43)c2C1 [Compound 1356] | – | 464 nM | 4270 nM | 53 nM
CC(=O)N1Cc2cc([C@H]3CC[C@@H](NC(=O)/C=C/CN(C)C)CC3)cc(N3CCCc4cc(-c5cnn(C)c5)c(C(F)F)cc43)c2C1 [Compound 1358] | – | 598 nM | 4940 nM | 39 nM
CC(=O)N1Cc2cc([C@H]3CC[C@@H](NC(=O)CCl)CC3)cc(N3CCCc4cc(-c5cnn(C)c5)c(C(F)F)cc43)c2C1 [Compound 1361] | – | 2 nM | 106 nM | 1 nM
CC(=O)N1Cc2cc([C@H]3CC[C@H](NC(=O)CCl)CC3)cc(N3CCCc4cc(-c5cnn(C)c5)c(C(F)F)cc43)c2C1 [Compound 1362] | 6 nM | 3 nM | 51 nM | 2 nM
C=CS(=O)(=O)N[C@H]1CC[C@@H](c2cc3c(c(N4CCCc5cc(-c6cnn(C)c6)c(C(F)F)cc54)c2)CN(C(=O)NC)CC3)CC1 [Compound 1366, 8-(7-(difluoromethyl)-6-(1-methyl-1H-pyrazol-4-yl)-3,4-dihydroquinolin-1(2H)-yl)-N-methyl-6-((1s,4s)-4-(vinylsulfonamido)cyclohexyl)-3,4-dihydroisoquinoline-2(1H)-carboxamide] | 28 nM | 24 nM | 131 nM | 5 nM
C=CS(=O)(=O)N[C@H]1CC[C@H](c2cc3c(c(N4CCCc5cc(-c6cnn(C)c6)c(C(F)F)cc54)c2)CN(C(=O)NC)CC3)CC1 [Compound 1367, 8-(7-(difluoromethyl)-6-(1-methyl-1H-pyrazol-4-yl)-3,4-dihydroquinolin-1(2H)-yl)-N-methyl-6-((1r,4r)-4-(vinylsulfonamido)cyclohexyl)-3,4-dihydroisoquinoline-2(1H)-carboxamide] | 46 nM | 33 nM | 135 nM | 4 nM
C=CS(=O)(=O)N1CCC(n2nc(N3CCCc4cc(-c5cnn(C)c5)c(C(F)F)cc43)c3c2CCN(C(=O)NC)C3)CC1 [Compound 1369, 3-(7-(difluoromethyl)-6-(1-methyl-1H-pyrazol-4-yl)-3,4-dihydroquinolin-1(2H)-yl)-N-methyl-1-(1-(vinylsulfonyl)piperidin-4-yl)-1,4,6,7-tetrahydro-5H-pyrazolo[4,3-c]pyridine-5-carboxamide] | 1 nM | 1 nM | 4 nM | 0.4 nM
C=CS(=O)(=O)N1CCC(n2c([C@@H]3CCCC(=O)N3c3ccc(F)c(F)c3)nc3cc(-c4c(C)noc4C)ccc32)CC1 [Compound 1373, (S)-1-(3,4-difluorophenyl)-6-(5-(3,5-dimethylisoxazol-4-yl)-1-(1-(vinylsulfonyl)piperidin-4-yl)-1H-benzo[d]imidazol-2-yl)piperidin-2-one] | 51 nM | 44 nM | 208 nM | 12 nM
C=CS(=O)(=O)N[C@H]1CC[C@H](n2nc(N3CCCc4cc(-c5cnn(C)c5)c(C(F)F)cc43)c3c2CCN(C(=O)NC)C3)CC1 [Compound 1374, 3-(7-(difluoromethyl)-6-(1-methyl-1H-pyrazol-4-yl)-3,4-dihydroquinolin-1(2H)-yl)-N-methyl-1-((1r,4r)-4-(vinylsulfonamido)cyclohexyl)-1,4,6,7-tetrahydro-5H-pyrazolo[4,3-c]pyridine-5-carboxamide] | 1 nM | 1 nM | 11 nM | 1 nM
C=CS(=O)(=O)N[C@H]1CC[C@@H](n2nc(N3CCCc4cc(-c5cnn(C)c5)c(C(F)F)cc43)c3c2CCN(C(=O)NC)C3)CC1 [Compound 1375, 3-(7-(difluoromethyl)-6-(1-methyl-1H-pyrazol-4-yl)-3,4-dihydroquinolin-1(2H)-yl)-N-methyl-1-((1s,4s)-4-(vinylsulfonamido)cyclohexyl)-1,4,6,7-tetrahydro-5H-pyrazolo[4,3-c]pyridine-5-carboxamide] | 2 nM | 2 nM | 16 nM | 1 nM
CNC(=O)N1CCc2c(c(N3CCCc4cc(-c5cnn(C)c5)c(C(F)F)cc43)nn2C2CCN(C(=O)CCl)CC2)C1 [Compound 1377, 1-(1-(2-chloroacetyl)piperidin-4-yl)-3-(7-(difluoromethyl)-6-(1-methyl-1H-pyrazol-4-yl)-3,4-dihydroquinolin-1(2H)-yl)-N-methyl-1,4,6,7-tetrahydro-5H-pyrazolo[4,3-c]pyridine-5-carboxamide] | 0.5 nM | 0.3 nM | 4 nM | 0.2 nM
C=CS(=O)(=O)N1CCC(n2nc(N3CCCc4cc(-c5cnn(C)c5)c(C5CC5)cc43)c3c2CCN(C(=O)NC)C3)CC1 [Compound 1378, 3-[7-cyclopropyl-6-(1-methylpyrazol-4-yl)-3,4-dihydro-2H-quinolin-1-yl]-1-(1-(vinylsulfonyl)piperidin-4-yl)-N-methyl-4H,6H,7H-pyrazolo[4,3-c]pyridine-5-carboxamide] | 3 nM | 3 nM | 10 nM | 2 nM
C=CS(=O)(=O)N1CCC(n2nc(N3CCCc4cc(-c5cnn(C)c5)c(C#N)cc43)c3c2CCN(C(=O)NC)C3)CC1 [Compound 1379, 3-[7-cyano-6-(1-methylpyrazol-4-yl)-3,4-dihydro-2H-quinolin-1-yl]-1-[1-(vinylsulfonyl)piperidin-4-yl]-N-methyl-4H,6H,7H-pyrazolo[4,3-c]pyridine-5-carboxamide] | 8 nM | 5 nM | 28 nM | 5 nM
CNC(=O)N1CCc2c(c(N3CCCc4cc(-c5cnn(C)c5)c(C(F)F)cc43)nn2[C@H]2CC[C@H](N3C(=O)C=CC3=O)CC2)C1 [Compound 1383, 3-(7-(difluoromethyl)-6-(1-methyl-1H-pyrazol-4-yl)-3,4-dihydroquinolin-1(2H)-yl)-1-((1r,4r)-4-(2,5-dioxo-2,5-dihydro-1H-pyrrol-1-yl)cyclohexyl)-N-methyl-1,4,6,7-tetrahydro-5H-pyrazolo[4,3-c]pyridine-5-carboxamide] | 108 nM | 122 nM | 496 nM | 63 nM
C=CS(=O)(=O)N[C@H]1CC[C@H](n2nc(N3CCCc4cc(-c5cnn(C)c5)c(C(F)F)cc43)c3c2CCN(C(C)=O)C3)CC1 [Compound 1387, N-((1r,4r)-4-(5-acetyl-3-(7-(difluoromethyl)-6-(1-methyl-1H-pyrazol-4-yl)-3,4-dihydroquinolin-1(2H)-yl)-4,5,6,7-tetrahydro-1H-pyrazolo[4,3-c]pyridin-1-yl)cyclohexyl)ethenesulfonamide] | 3 nM | 3 nM | 18 nM | 1 nM
C=CS(=O)(=O)N[C@H]1CC[C@@H](n2nc(N3CCCc4cc(-c5cnn(C)c5)c(C(F)F)cc43)c3c2CCN(C(C)=O)C3)CC1 [Compound 1388, N-((1s,4s)-4-(5-acetyl-3-(7-(difluoromethyl)-6-(1-methyl-1H-pyrazol-4-yl)-3,4-dihydroquinolin-1(2H)-yl)-4,5,6,7-tetrahydro-1H-pyrazolo[4,3-c]pyridin-1-yl)cyclohexyl)ethenesulfonamide] | 2 nM | 3 nM | 15 nM | 1 nM
C=CS(=O)(=O)N1CCC(c2cc3c(c(N4CCCc5cc(-c6cnn(C)c6)c(C(F)F)cc54)c2)CN(C(=O)NC)C3)CC1 [Compound 1391, 4-(7-(difluoromethyl)-6-(1-methyl-1H-pyrazol-4-yl)-3,4-dihydroquinolin-1(2H)-yl)-N-methyl-6-(1-(vinylsulfonyl)piperidin-4-yl)isoindoline-2-carboxamide] | 191 nM | 117 nM | 438 nM | 33 nM
